pIC50, pKd: −log10 of the molar value.
Assays:
DDR2 = DDR2 (Homo sapiens, UniProt Q16832); assay: KINOMEscan Kd determination; type: binding; conditions: 11-point serial dilution, top 30,000 nM
From the text: (§1) The KINOMEscan™ Profiling Service consisting of 468 human kinases was used to assess 249C inhibitor activity to check for off-target effects as previously described.
(§2) Supplementary Fi g u re 12: Compound 249C assessed for off-target effects using the KIN OME scanTM screening platform. (A) Selectivity (S-score) for 249C wher e the sco re is a qu antitative measu re o f compound selectivity against human kinases. It is calculate b y dividing the number of k inases that compounds bi nd to b y the total number of distinct kinases tested, excluding mutant variants (S = number of hits / number of assa ys). 1 hit out of >400 kinases is reported for test compound (249C) = 0.002. S(35) = number of non- mutant kinases with % ctrl <35/number of non- mutant kinases; (B) Kinome interaction map for 249C at 10,000 nM. Each red dot indicates a kinase found to bind, where larger dots indicate higher affinit y interactions.
(§3) 1 Tyrosine Kinase (TK) out of >400 kinases ( created in TREEspotTM ) with low affinity. This is calculated using
(§4) Dissociation constants (Kds) were determined using 249C at 30,000 nM, Hill slopes were set to - 1 and curves were fitted using a non- linear least square fit with the […]
(§5) (1 picture or pasted object on this page, not shown here)

DDR1 = DDR1 (Homo sapiens, UniProt Q08345); assay: KINOMEscan Kd determination; type: binding; conditions: 11-point serial dilution, top 30,000 nM
DDR1, sequence (Q08345 19-913): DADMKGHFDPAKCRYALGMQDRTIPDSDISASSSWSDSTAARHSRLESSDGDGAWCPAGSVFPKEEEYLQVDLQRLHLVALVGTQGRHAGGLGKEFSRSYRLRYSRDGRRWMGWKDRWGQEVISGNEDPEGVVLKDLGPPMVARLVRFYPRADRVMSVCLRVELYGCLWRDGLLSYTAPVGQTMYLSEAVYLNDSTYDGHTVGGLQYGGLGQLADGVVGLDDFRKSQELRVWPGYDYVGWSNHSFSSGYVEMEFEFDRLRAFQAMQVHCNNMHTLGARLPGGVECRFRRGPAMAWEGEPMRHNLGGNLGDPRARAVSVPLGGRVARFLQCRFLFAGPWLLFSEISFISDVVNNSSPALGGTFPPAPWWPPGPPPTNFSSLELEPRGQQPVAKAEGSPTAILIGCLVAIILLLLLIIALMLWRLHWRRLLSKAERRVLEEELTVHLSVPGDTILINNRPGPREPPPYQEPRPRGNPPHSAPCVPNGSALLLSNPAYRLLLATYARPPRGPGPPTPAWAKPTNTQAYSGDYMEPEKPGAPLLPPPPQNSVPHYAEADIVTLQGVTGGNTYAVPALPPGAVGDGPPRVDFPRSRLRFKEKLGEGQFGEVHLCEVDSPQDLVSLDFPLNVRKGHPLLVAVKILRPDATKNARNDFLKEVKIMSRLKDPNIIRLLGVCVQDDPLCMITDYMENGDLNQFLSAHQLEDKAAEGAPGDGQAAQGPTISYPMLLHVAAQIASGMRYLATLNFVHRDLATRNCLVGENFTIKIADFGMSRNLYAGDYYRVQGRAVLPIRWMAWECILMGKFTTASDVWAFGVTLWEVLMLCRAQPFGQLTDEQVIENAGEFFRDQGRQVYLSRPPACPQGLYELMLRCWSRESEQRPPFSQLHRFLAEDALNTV
From the text: as §1, §2, §3, §4, §5

[1] = system: SW48 KRASG12V/+ xenografts; assay: SW48 isogenic colon xenograft; type: in vivo, mouse; conditions: 10 mg/kg i.p., 14 days of treatment
From the text: (§6) To explore the relationship between individual KRAS mutants and 249C sensitivity in vivo, we used a colon cancer (SW48) xenograft model with a set of colon cancer cell lines which differ in KRAS mutation status but are otherwise genetically matched. Stable derivatives of the SW48 cell line were derived by introducing a KRASG12D, KRASG12V or KRASG13D point mutation via rrAV gene editing technology previously reported. To compare KRAS mutants in a cancer-relevant system, four cell lines: (SW48, SW48 KRASG12D/+, SW48 KRASG12V/+ and SW48 KRASG13D/+) were injected into athymic mice and 14 days of treatment (10 mg/kg 249C or vehicle control, i.p., n = 5 for all arms) was started when the average tumor volume reached approximately 100–200 mm^3 following random segregation into groups. As before, KRASG13D tumors were most sensitive to 249C both in vitro and in vivo (Fig. 6d–e). […] Changes in tumor volume are presented for animals bearing isogenic SW48 cells: parental/KRASWT (Fig. 6f), KRASG12D/+ (Fig. 6g), KRASG12V/+, (Fig. 6h), KRASG13D/+ (Fig. 6i). Note that SW48 tumors with different KRAS variants show different basal growth rates, as reported previously. […] Further, no significant changes in body weight of the mice were observed during the study (Fig. 6j).
(§7) For cell line xenografts, 6 × 10^6 SW48 cells were subcutaneously injected into the flanks of 6–8-week old athymic nude female mice (Taconic model # NCRNU-F, CrTac:NCR-Foxn1 sp/sp) and tumor growth was monitored with caliper measurement. Once the mean tumor reached a certain volume (between 100–200 mm^3), animals were randomized into different treatment groups of 5 animals per group. 249C for in vivo use was formulated in 0.5% Methylcellulose and dosed i.p. (10 mg/kg, for 2 weeks). Antitumor activity was determined by calculating the treatment over control (T/C) tumor volume ratio at the end of the study. Either at the end of each study, of if any animal reached a humane endpoint, animals were euthanized with CO2 followed by cervical dislocation or another secondary method of euthanasia approved by the IACUC protocol. Mouse manipulations were performed in accordance with UCSF’s IACUC protocol AN179973.Mice were housed in the UCSF Animal Care Facility LARC at the Helen Diller Family Cancer Center at UCSF Mission Bay. Mice were housed in a specific-pathogen free individual suite. They are housed up to 5 per cage in ventilator cages, with ad libitum food and water on a 12-hour light cycle and controlled temperature and humidity conditions (67–74°F and 30–70%).

[2] = system: SW48 KRASG12D/+ xenografts; assay: SW48 isogenic colon xenograft; type: in vivo, mouse; conditions: 10 mg/kg i.p., 14 days of treatment
From the text: as §6, §7

[3] = system: SW48 parental (KRAS WT) xenografts; assay: SW48 isogenic colon xenograft; type: in vivo, mouse; conditions: 10 mg/kg i.p., 14 days of treatment
From the text: as §6, §7

[4] = system: SW48 KRASG13D/+ xenografts; assay: SW48 isogenic colon xenograft; type: in vivo, mouse; conditions: 10 mg/kg i.p., 14 days of treatment
From the text: as §6, §7

hERG = hERG (Homo sapiens, UniProt Q12809); assay: hERG fluorescence polarization assay; conditions: human
hERG, sequence (Q12809 whole entry): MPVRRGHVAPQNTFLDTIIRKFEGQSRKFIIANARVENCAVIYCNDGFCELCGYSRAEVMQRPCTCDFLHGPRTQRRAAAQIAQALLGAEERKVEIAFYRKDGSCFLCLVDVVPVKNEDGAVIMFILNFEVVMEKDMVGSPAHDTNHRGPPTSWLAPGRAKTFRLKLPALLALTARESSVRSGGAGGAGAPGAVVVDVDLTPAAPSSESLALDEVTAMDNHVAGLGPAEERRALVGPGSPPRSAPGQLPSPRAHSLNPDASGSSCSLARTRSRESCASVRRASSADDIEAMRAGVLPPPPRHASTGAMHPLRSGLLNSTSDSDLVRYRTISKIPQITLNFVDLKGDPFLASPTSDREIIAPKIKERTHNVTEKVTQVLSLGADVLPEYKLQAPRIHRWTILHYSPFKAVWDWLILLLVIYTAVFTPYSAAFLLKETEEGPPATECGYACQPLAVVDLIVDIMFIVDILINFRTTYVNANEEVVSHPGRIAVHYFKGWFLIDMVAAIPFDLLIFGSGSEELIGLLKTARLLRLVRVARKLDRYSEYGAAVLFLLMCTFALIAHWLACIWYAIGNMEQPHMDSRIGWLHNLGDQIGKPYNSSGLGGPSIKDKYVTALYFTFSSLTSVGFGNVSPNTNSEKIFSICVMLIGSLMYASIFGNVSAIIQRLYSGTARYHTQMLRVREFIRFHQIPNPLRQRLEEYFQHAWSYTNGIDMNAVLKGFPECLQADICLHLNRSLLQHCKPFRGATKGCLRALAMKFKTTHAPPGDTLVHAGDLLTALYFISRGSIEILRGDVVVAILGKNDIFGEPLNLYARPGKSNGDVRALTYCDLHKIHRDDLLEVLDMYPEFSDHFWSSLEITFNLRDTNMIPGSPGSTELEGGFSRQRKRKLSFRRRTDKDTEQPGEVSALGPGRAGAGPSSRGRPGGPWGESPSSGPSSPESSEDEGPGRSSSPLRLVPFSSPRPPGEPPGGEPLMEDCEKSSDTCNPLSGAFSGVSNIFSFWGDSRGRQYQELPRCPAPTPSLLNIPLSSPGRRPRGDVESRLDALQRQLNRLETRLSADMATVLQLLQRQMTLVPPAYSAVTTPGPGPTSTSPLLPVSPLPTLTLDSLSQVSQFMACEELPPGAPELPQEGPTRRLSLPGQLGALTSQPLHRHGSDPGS

MEFs BRAFV600E = assay: Cell proliferation of Ras-less MEFs expressing human KRAS/BRAF; conditions: Mus musculus
Description: (§8) Cell proliferation assays of stable cell lines treated with V-ATPase inhibitors 249C and BafA1, HCQ analog (DC661), KRASG12C inhibitor (AMG510) and autophagy inducer (CMA). For each bar, n = 3. Representative of 3 biological replicates (mean ± SD). Two-sided t-test with no adjustments for multiple comparisons.
(§9) Logarithmically growing cells were plated in antibiotic-free medium supplemented with 2% fetal bovine serum at a density of 5,000 cells per well. The next day, cells were treated in triplicates with increasing doses of in-house small molecule inhibitor drugs and a DMSO vehicle control for 3 days and subsequently assessed for cell viability by measurement of ATP with CellTiter-Glo Luminescent Cell Viability Assay (Promega). Signal intensity was read on a Glomax™ 96 Microplate Luminometer (Promega) with GLOMAX software (version 1.9.3) and percent cell survival was calculated based on the reading of vehicle control cells set as 100% using Excel (2012) and GraphPad Prism (version 6)Each compound was tested a minimum of 2 times with n = 3. All cell proliferation assays (cancer cell lines or MEFs) were done in a similar way.

[5] = Maximum tolerated dose study; type: in vivo
From the text: MTD studies were outsourced and performed at a local CRO based on their established protocols.

MEFs KRAS G12C = assay: Cell proliferation of Ras-less MEFs expressing human KRAS/BRAF; conditions: Mus musculus
Description: as §9

human primary cells = assay: BioMAP Safety and Toxicology screening profile; type: cell-based; conditions: over 100 biomarker readouts
Description: The BioMAP Toxicity Screening Profile was performed as described previously.

MEFs KRAS G12D = assay: Cell proliferation of Ras-less MEFs expressing human KRAS/BRAF; conditions: Mus musculus
Description: as §9

MEFs KRASWT = assay: as above; conditions: Mus musculus
Description: as §8, §9

[6] = biological target: T1, mammalian V-ATPase purified from pig kidneys (Sus scrofa, UniProt Q9TVC1); assay: Biochemical V-ATPase (ATP hydrolysis) assay; conditions: concentrations as low as 1 μM
T1 construct: the entire V-ATPase complex (800 kDa) was purified as described previously from porcine kidneys; from tissue; host or cells: porcine kidney
T1 sequence (Q9TVC1 whole entry): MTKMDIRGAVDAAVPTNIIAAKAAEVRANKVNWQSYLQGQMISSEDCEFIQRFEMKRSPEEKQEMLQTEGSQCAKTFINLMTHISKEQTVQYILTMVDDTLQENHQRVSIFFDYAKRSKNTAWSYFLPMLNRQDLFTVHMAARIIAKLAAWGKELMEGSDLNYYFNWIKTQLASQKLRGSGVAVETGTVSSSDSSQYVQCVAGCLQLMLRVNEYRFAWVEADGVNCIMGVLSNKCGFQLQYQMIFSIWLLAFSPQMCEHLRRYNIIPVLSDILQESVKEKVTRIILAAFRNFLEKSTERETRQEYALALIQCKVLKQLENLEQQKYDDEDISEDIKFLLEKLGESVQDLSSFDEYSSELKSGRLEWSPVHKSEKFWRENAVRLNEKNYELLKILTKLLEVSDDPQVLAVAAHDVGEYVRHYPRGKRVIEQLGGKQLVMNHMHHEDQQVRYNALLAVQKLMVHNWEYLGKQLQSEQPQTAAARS
T1 sequence (Q29048 whole entry partner): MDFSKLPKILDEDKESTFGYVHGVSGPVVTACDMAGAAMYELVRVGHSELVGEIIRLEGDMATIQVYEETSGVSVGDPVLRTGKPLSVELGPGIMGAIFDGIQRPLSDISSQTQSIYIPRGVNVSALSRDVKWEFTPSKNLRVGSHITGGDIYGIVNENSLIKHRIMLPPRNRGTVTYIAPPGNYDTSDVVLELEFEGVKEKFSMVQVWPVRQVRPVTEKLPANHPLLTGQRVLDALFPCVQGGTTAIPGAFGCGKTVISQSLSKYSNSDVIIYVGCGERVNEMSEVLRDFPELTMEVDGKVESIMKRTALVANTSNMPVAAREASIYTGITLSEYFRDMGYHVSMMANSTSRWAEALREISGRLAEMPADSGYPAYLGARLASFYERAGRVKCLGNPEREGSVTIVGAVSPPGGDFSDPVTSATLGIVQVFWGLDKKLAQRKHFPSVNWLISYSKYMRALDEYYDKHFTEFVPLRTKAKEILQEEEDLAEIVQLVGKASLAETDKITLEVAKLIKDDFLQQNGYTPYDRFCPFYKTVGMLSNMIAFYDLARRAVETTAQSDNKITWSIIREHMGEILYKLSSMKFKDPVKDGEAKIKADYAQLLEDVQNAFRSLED
Description: V-ATPase was purified as described previously from yeast[82] using the detergent dodecylmaltoside and porcine kidney[83] using the detergent glycol-diosgenin. ATPase assays with purified V-ATPase were performed as described previously. 249C (mammalian: 0.1, 1, 10, 100 μM and yeast: 5, 10 and 100 μM) or BafA1 (1 μM) were added to the reaction and compared with a negative control to which only DMSO was added. Enzyme-coupled ATPase biochemical activity assays were performed in a 96-well plate as described previously.

DDR2, sequence (Q16832 22-855): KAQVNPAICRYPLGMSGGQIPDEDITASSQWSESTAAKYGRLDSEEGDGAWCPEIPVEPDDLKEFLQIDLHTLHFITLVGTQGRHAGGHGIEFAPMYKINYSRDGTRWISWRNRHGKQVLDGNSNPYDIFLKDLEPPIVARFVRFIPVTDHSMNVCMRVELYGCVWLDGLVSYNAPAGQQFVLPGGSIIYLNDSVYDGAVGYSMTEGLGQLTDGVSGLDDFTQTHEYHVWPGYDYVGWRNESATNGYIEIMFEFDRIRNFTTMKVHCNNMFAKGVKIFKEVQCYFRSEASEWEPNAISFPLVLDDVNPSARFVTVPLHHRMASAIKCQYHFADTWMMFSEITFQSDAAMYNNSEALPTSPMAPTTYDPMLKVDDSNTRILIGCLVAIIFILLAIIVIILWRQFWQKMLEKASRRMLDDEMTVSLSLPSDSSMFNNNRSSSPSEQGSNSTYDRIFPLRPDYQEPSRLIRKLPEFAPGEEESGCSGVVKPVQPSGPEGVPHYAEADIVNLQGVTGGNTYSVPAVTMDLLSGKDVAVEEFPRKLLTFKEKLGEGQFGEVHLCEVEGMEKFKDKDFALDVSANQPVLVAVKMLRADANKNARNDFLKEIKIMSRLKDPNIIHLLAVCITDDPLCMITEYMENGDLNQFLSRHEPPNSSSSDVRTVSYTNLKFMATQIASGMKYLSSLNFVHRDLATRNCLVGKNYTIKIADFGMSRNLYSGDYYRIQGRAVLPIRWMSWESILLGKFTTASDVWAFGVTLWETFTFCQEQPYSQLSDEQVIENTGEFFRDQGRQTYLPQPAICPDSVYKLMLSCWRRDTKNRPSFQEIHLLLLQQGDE

SMILES: CN1CCOC(CNC(=O)C2(C)C(c3ccc(Cl)o3)C(c3ccc(F)cc3F)=NN2c2ccc(F)cc2F)C1 (stereo not drawn) [Compound 249C]
- pKd (DDR2): 4.80
- pKd (DDR1): 5.27
- Treatment/Control on Day 21 [1]: 55%
- Tumor Growth Inhibition (TGI) on Day 21 [1]: 45%
- Treatment/Control on Day 21 [2]: 75%
- Tumor Growth Inhibition (TGI) on Day 21 [2]: 25%
- Tumor Growth Inhibition (TGI) on Day 21 [3]: 0%
- Treatment/Control on Day 21 [4]: 18%
- Tumor Growth Inhibition (TGI) on Day 21 [4]: 82%
- inhibition at 30 µM (hERG): 0%
- pIC50 (MEFs BRAFV600E): 6.96
- body weight ([5]; 150 mg/kg, after 21 days in vivo): no significant difference in body weight
- MTD at 21 days ([5]; mouse, in vivo, mice): 150 mg/kg
- pIC50 (MEFs KRAS G12C): 6.36
- toxicity categories / adverse events in BioMAP safety profiling (human primary cells): no adverse events
- pIC50 (MEFs KRAS G12D): 6.52
- pIC50 (MEFs KRASWT): 5.90
- ATP hydrolysis of intact mammalian V-ATPase [6]: blocked ATP hydrolysis

— article PMC9750872, “Ras-mutant cancers are sensitive to small molecule inhibition of V-type ATPases in mice” (Nature biotechnology, 2022)
